Assay results taken from US20060014734A1, “Immediate release pharmaceutical formulation” (priority 2002, published 2006).

How the values were obtained:
[1] = Nanoparticle preparation: particle size and its stability; format: physicochemical; conditions: for nanoparticle size: about 100 mM ethanol stock with 25% (w/w) Miglyol, diluted 1/10 in 0.2% PVP and 0.25 mM SDS in water, ultrasonication; for particle sizes after 6 hours at room temperature: nanoparticles after 1/10 dilution in 0.2% PVP and 0.25 mM SDS in water
Procedure: In order to prepare nanoparticles a stock solution of Compound A of about 100 mM in ethanol was used. Included was also 25% (w/w) Miglyol, calculated on the amount of the substance. The solutions were diluted 1/10 with the stabilizer solution, consisting of 0.2% (w/w) PVP and 0.25 mM SDS in water. The mixing, which is considered as a critical parameter during the nanoparticle preparation, was rapid and instant. The drug solution was rapidly injected into the stabilizer solution during ultrasonication. After the 1/10 dilution in the aqeous solution, nanoparticles of about 150 nm were achieved. After 6 hours at room temperature, the particle sizes were unchanged.
To prepare nanoparticles a stock solution of Compound B of about 100 mM in ethanol was used. Included was also 25% (w/w) Miglyol, calculated on the amount of the substance. The solutions were diluted 1/10 with a stabilizer solution consisting of 0.2% (w/w) PVP and 0.25 mM SDS in water. The critical mixing stage was rapid and instant:—The drug solution was rapidly injected into the stabilizer solution during ultrasonication. After 1/10 dilution in the aqeous solution, nanoparticles of about 110 nm were obtained. After 6 hours at room temperature, the particle sizes were unchanged.

[2] = Storage stability of liquid formulations; format: physicochemical
Procedure: The pH of this solution was set to 3.8 by addition of HCl. The solubility of Compound A is at least 1000 times higher in this vehicle compared to water alone. Formulations of Compound A in this vehicle are stable for at least 3 months at <−15° C.

[3] = pH of the formulation; format: physicochemical
Procedure: A formulation was prepared by dissolving Compound A in acidified PEG 400/ethanol/water 20/10/70 (w/w) % that was followed by gently stirring. The pH of this solution was 3.6. The solubility of Compound A is at least 250 times higher in this vehicle compared to water alone.
A formulation was prepared by dissolving Compound E in 9 mg/ml NaCl by gently stirring. The pH obtained in this formulation is 8-9.
A formulation was prepared by dissolving Compound F in 9 mg/ml NaCl by gently stirring. The pH obtained in this formulation is 3-4. Formulations of F in this vehicle are stable for at least 2 weeks at room temperature and below.

[4] = Solubility in vehicle compared to water alone; format: physicochemical
[5] = Plasma concentration 1 hour after oral or subcutaneous administration of solution to rats

## CO/N=C(\N)c1ccc(CNC(=O)[C@@H]2CCN2C(=O)[C@H](O)c2cc(Cl)cc(OC(F)F)c2)cc1 [Compound A, Ph(3-Cl)(5-OCHF2)—(R)CH(OH)C(O)—(S)Aze-Pab(OMe)]
[1]
  nanoparticle size: about 150 nm
  particle sizes after 6 hours at room temperature: unchanged
[2]; Example 10: acidified PEG 400/ethanol/water 40/5/55, pH 3.8, at <−15° C.
  time the formulation is stable: at least 3 months
[2]; Example 28: 130 μmol/mL in ethanol
  time the substance is stable in this formulation: more than 1 week
[2]; Example 57: PEG 400/ethanol/water 25/10/65, in a freezer
  time the formulation is stable: at least 2 months
[2]; Example 60: ethanol, citric acid and water, pH 3.2, in a freezer
  time the formulation is stable: at least 1 month
[2]; Example 61: citric acid in physiological saline, pH 3.6, in a freezer
  time the formulation is stable: at least 3 months
[2]; Example 62: PEG 400/ethanol/water 40/5/55 containing citric acid, pH 3.6, in a freezer
  time the formulation is stable: at least 1 month
[2]; Example 67: citric acid in physiological saline, pH 3.6, in a freezer
  time the formulation is stable: at least 3 months
[3]; Example 6: 51 μmol/mL in PEG 400/ethanol/water 20/10/70, water with 50 μmol/mL tartaric acid
  pH of this solution: 3.6
[4]; Example 4: PEG 400/ethanol/water 50/5/45 (w/w) %
  solubility in this vehicle compared to water alone: at least 1000 times
[4]; Example 5: PEG 400/ethanol/water 20/10/70 (w/w) %
  solubility in this vehicle compared to water alone: at least 100 times
[4]; Example 6: acidified PEG 400/ethanol/water 20/10/70, water with 50 μmol/mL tartaric acid, pH 3.6
  solubility in this vehicle compared to water alone: at least 250 times
[4]; Example 7: PEG 400/ethanol/water 30/5/65 (w/w) %
  solubility in this vehicle compared to water alone: at least 200 times
[4]; Example 8: acidified PEG 400/ethanol/water 30/5/65, tartaric acid, HCl to pH 3.6
  solubility in this vehicle compared to water alone: at least 400 times
[4]; Example 9: PEG 400/ethanol/water 40/5/55 (w/w) %
  solubility in this vehicle compared to water alone: at least 600 times
[4]; Example 10: acidified PEG 400/ethanol/water 40/5/55, tartaric acid, HCl to pH 3.8
  solubility in this vehicle compared to water alone: at least 1000 times
[4]; Example 11: Hydroxypropyl-β-cyclodextrin/water 40/60 (w/w) %, pH set to 4.7 by HCl
  solubility in this vehicle compared to water alone: at least 700 times
[4]; Example 12: Hydroxypropyl-β-cyclodextrin/water 28/72 (w/w) %
  solubility in this vehicle compared to water alone: at least 400 times
[4]; Example 13: PEG 400/ethanol/solutol/water 50/5/5/40 (w/w) %
  solubility in this vehicle compared to water alone: at least 80 times
[4]; Example 14: PEG 400/water 40/60 (w/w) %
  solubility in this vehicle compared to water alone: at least 200 times
[4]; Example 15: PEG 400/water 35/65 (w/w) %, water with 50 μmol/mL tartaric acid
  solubility in this vehicle compared to water alone: at least 250 times
[4]; Example 16: PEG 400/water 50/50 (w/w) %
  solubility in this vehicle compared to water alone: at least 300 times
[4]; Example 17: PEG 400/water 67/33 (w/w) %
  solubility in this vehicle compared to water alone: at least 400 times
[4]; Example 18: PEG 400/ethanol/water 45/1/54 (w/w) %
  solubility in this vehicle compared to water alone: at least 450 times
[4]; Example 19: acidified PEG 400/ethanol/water 45/1/54, tartaric acid, HCl to pH 4.2
  solubility in this vehicle compared to water alone: at least 800 times
[4]; Example 20: PEG 400/ethanol/water 45/2/53 (w/w) %
  solubility in this vehicle compared to water alone: at least 500 times
[4]; Example 21: acidified PEG 400/ethanol/water 45/2/53, tartaric acid, HCl to pH 4.3
  solubility in this vehicle compared to water alone: at least 800 times
[4]; Example 22: DMA/water 50/50 (w/w) %
  solubility in this vehicle compared to water alone: at least 230 times
[4]; Example 23: DMA/water 25/75 (w/w) %
  solubility in this vehicle compared to water alone: at least 150 times
[4]; Example 24: water with double equimolar HCl, pH adjusted to 3.6
  solubility in this vehicle compared to water alone: at least 20 times
[4]; Example 25: water, HCl to pH 1, then NaOH to pH 3.0
  solubility in this vehicle compared to water alone: at least 40 times
[4]; Example 26: DMA/miglyol (miglyol 0.25 g/g Compound A)
  solubility in this vehicle compared to water alone: at least 4000 times
[4]; Example 27: Ethanol/Miglyol (miglyol 0.25 g/g Compound A)
  solubility in this vehicle compared to water alone: at least 4000 times
[4]; Example 57: PEG 400/ethanol/water 25/10/65 (w/w) %
  solubility in this vehicle compared to water alone: at least 100 times
[4]; Example 58: PEG 400/ethanol/water 50/10/40 (w/w) %
  solubility in this vehicle compared to water alone: at least 2000 times
[4]; Example 59: PEG 400/ethanol/water 40/10/50 (w/w) %
  solubility in this vehicle compared to water alone: at least 1500 times
[4]; Example 60: ethanol, citric acid and water, pH set to 3.2
  solubility in this vehicle compared to water alone: at least 100 times

## CO/N=C(\N)c1cc(F)c(CNC(=O)[C@@H]2CCN2C(=O)[C@H](O)c2cc(Cl)cc(OC(F)F)c2)c(F)c1 [Compound B, Ph(3-Cl)(5-OCHF2)—(R)CH(OH)C(O)—(S)Aze-Pab(2,6-diF)(OMe)]
[1]
  nanoparticle size: about 110 nm
  particle sizes after 6 hours at room temperature: unchanged
[2]; Example 69: 0.5 mg/mL in PEG 400/ethanol/water 50/5/45, at <−15° C.
  time the formulation is stable: at least 1 month

## CO/N=C(\N)c1ccc(CNC(=O)[C@@H]2CCN2C(=O)[C@H](O)c2cc(Cl)cc(OCCF)c2)cc1 [Compound C, Ph(3-Cl)(5-OCH2CH2F)—(R)CH(OH)C(O)—(S)Aze-Pab(OMe)]
[2]; Example 73: 0.5 mg/mL in PEG 400/ethanol/water 50/5/45, at room temperature and below
  time the formulation is stable: at least 1 month
[2]; Example 74: Hydroxypropyl-β-cyclodextrin/water 20/80, at <8° C.
  time the formulation is stable: at least 2 weeks

## N=C(N)c1ccc(CNC(=O)[C@@H]2CCN2C(=O)[C@H](O)c2cc(Cl)cc(OC(F)F)c2)cc1 [Compound D, Ph(3-Cl)(5-OCHF2)—(R)CH(OH)C(O)—(S)Aze-Pab]
[2]; Example 64: acidified PEG 400/ethanol/water 40/5/55, pH 3.6, at <−15° C.
  time the formulation is stable: at least 2 months
[5]; oral, dosed: Compound A 4 μmol/mL in saline/ethanol/solutol 90/5/5
  plasma concentration after 1 hour: 560 nM
[5]; subcutaneous, dosed: Compound A 4 μmol/mL in saline/ethanol/solutol 90/5/5
  plasma concentration after 1 hour: 240 nM
[5]; subcutaneous, dosed: Compound D trifluoroacetate salt 4 μmol/mL in saline/ethanol
  plasma concentration after 1 hour: 550 nM

## N=C(N)c1cc(F)c(CNC(=O)[C@@H]2CCN2C(=O)[C@H](O)c2cc(Cl)cc(OC(F)F)c2)c(F)c1 [Compound E, Ph(3-Cl)(5-OCHF2)—(R)CH(OH)C(O)—(S)Aze-Pab(2,6-diF)]
[5]; oral, dosed: Compound B 4 μmol/mL in saline/ethanol/solutol 90/5/5
  plasma concentration after 1 hour: 650 nM
[5]; subcutaneous, dosed: Compound B 4 μmol/mL in saline/ethanol/solutol 90/5/5
  plasma concentration after 1 hour: 300 nM
[5]; subcutaneous, dosed: Compound E acetate salt 4 μmol/mL in saline/ethanol
  plasma concentration after 1 hour: 750 nM
[3]; Example 72: dissolved in 9 mg/ml NaCl
  pH obtained in this formulation: 8-9

## N=C(N)c1ccc(CNC(=O)[C@@H]2CCN2C(=O)[C@H](O)c2cc(Cl)cc(OCCF)c2)cc1 [Compound F, Ph(3-Cl)(5-OCH2CH2F)—(R)CH(OH)C(O)—(S)Aze-Pab]
[2]; Example 75: 9 mg/ml NaCl, at room temperature and below
  time the formulation is stable: at least 2 weeks
[5]; oral, dosed: Compound C 4 μmol/mL in saline/ethanol/solutol 90/5/5
  plasma concentration after 1 hour: 500 nM
[5]; subcutaneous, dosed: Compound C 4 μmol/mL in saline/ethanol/solutol 90/5/5
  plasma concentration after 1 hour: 500 nM
[5]; subcutaneous, dosed: Compound F trifluoroacetate salt 4 μmol/mL in saline/ethanol
  plasma concentration after 1 hour: 920 nM
[3]; Example 75: dissolved in 9 mg/ml NaCl
  pH obtained in this formulation: 3-4
